Data published in patent publication US6844358B2, “Phenyl oxo-acetic acids useful in the treatment of insulin resistance and hyperglycemia” (Wyeth, priority 1998, dated 2005).
pIC50: −log10 of the molar value. Like-named read-outs stand apart in the source and are kept apart here.

How the values were obtained:
[1] = biological target: T1, recombinant rat protein tyrosine phosphatase, PTP1B (rPTP1B) (Rattus norvegicus, UniProt P20417); format: biochemical; conditions: rPTP1B
T1 sequence (P20417 1-432): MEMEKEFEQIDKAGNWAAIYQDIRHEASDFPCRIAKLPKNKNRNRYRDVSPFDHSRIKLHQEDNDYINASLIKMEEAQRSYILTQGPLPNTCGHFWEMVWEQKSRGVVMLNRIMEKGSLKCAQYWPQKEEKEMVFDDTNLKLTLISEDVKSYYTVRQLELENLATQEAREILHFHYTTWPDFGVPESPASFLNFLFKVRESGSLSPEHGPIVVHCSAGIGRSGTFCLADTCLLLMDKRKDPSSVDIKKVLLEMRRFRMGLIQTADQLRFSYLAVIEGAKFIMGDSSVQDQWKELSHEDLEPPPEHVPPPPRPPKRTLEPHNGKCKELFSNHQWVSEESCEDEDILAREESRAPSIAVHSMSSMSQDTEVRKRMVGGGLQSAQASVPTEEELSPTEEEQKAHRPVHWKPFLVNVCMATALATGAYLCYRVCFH

[2] = biological target: T2, Human recombinant PTP1B (hPTP1B) (Homo sapiens, UniProt P18031); format: biochemical; conditions: hPTP1B
T2 construct: made in house
T2 sequence (P18031 1-435): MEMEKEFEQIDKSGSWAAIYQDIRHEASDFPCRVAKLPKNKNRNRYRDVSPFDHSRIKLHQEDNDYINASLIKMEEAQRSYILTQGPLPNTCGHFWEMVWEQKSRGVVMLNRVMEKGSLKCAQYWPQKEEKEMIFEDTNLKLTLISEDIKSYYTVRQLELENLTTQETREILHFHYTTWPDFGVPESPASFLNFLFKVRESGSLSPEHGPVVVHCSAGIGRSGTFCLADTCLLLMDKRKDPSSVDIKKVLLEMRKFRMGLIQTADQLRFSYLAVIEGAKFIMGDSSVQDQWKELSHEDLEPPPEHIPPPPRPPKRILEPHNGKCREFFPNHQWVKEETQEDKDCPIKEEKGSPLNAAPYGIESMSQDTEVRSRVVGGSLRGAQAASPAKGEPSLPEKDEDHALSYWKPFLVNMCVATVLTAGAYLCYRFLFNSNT

[3] = test system: diabetic (ob/ob) mice; experiment: Blood glucose lowering activity in diabetic (ob/ob) mice; format: in vivo; conditions: Mus musculus, po
Description: The procedures used and results obtained are briefly described below. […]
In each test procedure, mice [Male or female ob/ob (C57 B1/6J) and their lean litermates (ob/+ or +/+, Jackson Laboratories) ages 2 to 5 months (10 to 65 g)] of a similar age were randomized according to body weight into 4 groups of 10 mice. The mice were housed 5 per cage and are maintained on normal rodent chow with water ad libitum. Mice received test compound daily by gavage (suspended in 0.5 ml of 0.5% methyl cellulose); dissolved in the drinking water; or admixed in the diet. The dose of compounds given ranges from 2.5 to 200 mg/kg body weight/day. The dose is calculated based on the fed weekly body weight and is expressed as active moiety. […] Control mice received vehicle only.
On the morning of Day 4, 7 or 14 two drops of blood (approximetly 50 ul) were collected into sodium fluoride containing tubes either from the tail vein or after decapitation. For those studies in which the compound was administered daily by gavage the blood samples were collected two hours after compound administration. […]
Analysis of variance followed by Dunett's Comparison Test (one-tailed) are used to estimate the significant difference between the plasma glucose values from the control group and the individual compound treated groups (CMS SAS Release 5.18).

[4] = biological target: rat hepatic microsomal PTPases; conditions: rat hepatic microsomal PTPase; for pIC50: dodecaphosphopeptide substrate 50 uM
[5] = test system: Human recombinant PTP1B (hPTP1B); format: biochemical
[6] = 96 h, plasma glucose on Day 4, 7 or 14, suffix a = no significant activity at this dose, read-out: % Change Glucose from Vehicle
[7] = suffix a = no significant activity at this dose, read-out: % Change Insulin from Vehicle

Compound	pIC50 [2]	melting point [°C]	pIC50 [4]	change in vivo at 100 mg/kg [3, 6] [%]	change in vivo at 100 mg/kg [3, 7] [%]	other results
Ammonium molybdate tetrahydrate [reference compound]						% change from control at 10 μM ([5]; reference standards, enzyme form (rPTP1B/hPTP1B) not given): 8.7%
CCCCc1oc2ccccc2c1Cc1cc(Br)c(O[C@H](Cc2ccccc2)C(=O)O)c(Br)c1 [Example 23, (R)-2-[2,6-dibromo-4-(2-butyl-benzofuran-3-ylmethyl)-phenoxy]-3-phenyl-propionic acid]	6.06	225 to 226				% Change from Control at 50 μM ([4]; 50 μM compound): −85%
[Na+].[Na+].[Na+].[O]=[V]([O-])([O-])[O-] [Sodium orthovanadate, reference compound]						% change from control at 10 μM [5]: 244.8%

More lines, main results first:

pIC50 [2]	melting point [°C]	pIC50 [4]	Compound	change in vivo at 100 mg/kg [3, 6] [%]	change in vivo at 100 mg/kg [3, 7] [%]	other results
5.71	155.5 to 156.5	4.47	O=C(c1cc(Br)c(O)c(Br)c1)c1c(Cc2ccccc2)sc2ccccc12 [Example 11, (2-Benzyl-benzo[b]thiophen-3-yl)-(3,5-dibromo-4-hydroxy-phenyl)-methanone]	-30.3	-53.2	pIC50 ([1]; read-out: IC50): 5.40
5.85	118 to 119	4.64	CCCCc1oc2ccccc2c1Cc1cc(Br)c(OCC(=O)O)c(Br)c1 [Example 7]	-29.4	-13.1	% change from control at 10 μM ([1]; 10 μM compound): −99 (rPTP1B) %
